# Where two headings read alike, the source gives them in different places. Peptide text beside a SMILES is read from it.
# Legend:
# A. baumannii ATCC 19606 = type: cell-based, Acinetobacter baumannii; conditions: ATCC 19606, 20 h
# Description: (§1) The following Gram-negative bacteria were used in our study: A. baumannii ATCC 19606, E. coli ATCC 11775, E. coli AIC221 (E. coli MG1655 phnE_2::FRT), E. coli AIC222 (E. coli MG1655 pmrA53 phnE_2::FRT (colistin resistant)), K. pneumoniae ATCC 13883, P. aeruginosa PAO1 and P. aeruginosa PA14. The following Gram-positive bacteria were also used in our study: S. aureus ATCC 12600, S. aureus ATCC BAA-1556 (methicillin-resistant strain), E. faecalis ATCC 700802 (vancomycin-resistant strain) and E. faecium ATCC 700221 (vancomycin-resistant strain). Bacteria were grown from frozen stocks and plated on Luria–Bertani (LB) or Pseudomonas isolation agar plates (P. aeruginosa strains) and incubated overnight at 37 °C. After the incubation period, a single colony was transferred to 5 ml of LB medium, and cultures were incubated overnight (16 h) at 37 °C. The following day, an inoculum was prepared by diluting the overnight cultures 1:100 in 5 ml of the respective media and incubating them at 37 °C until bacteria reached logarithmic phase (OD600 = 0.3–0.5).
# (§2) The in vitro antimicrobial activity of the peptides was assessed by using the broth microdilution assay. […] Aqueous solutions of the peptides were added to the plate at concentrations ranging from 1 to 64 μmol l^−1. […] The optical density of the plates was measured at 600 nm using a spectrophotometer. All assays were done as three biological replicates.
# HEK293T cells = tested on: HEK293T cells
# Procedure: HEK293T cells were obtained from the American Type Culture Collection (CRL-3216). The cells were cultured in high-glucose Dulbecco’s modified Eagle’s medium supplemented with 1% penicillin and streptomycin (antibiotics) and 10% fetal bovine serum and grown at 37 °C in a humidified atmosphere containing 5% CO2.
# One day before the experiment, an aliquot of 100 μl of the cells at 50,000 cells per ml was seeded into each well of the cell-treated 96-well plates used in the experiment (that is, 5,000 cells per well). […] After the incubation period, we performed the 3-(4,5-dimethylthiazol-2-yl)-2,5-diphenyltetrazolium bromide tetrazolium reduction assay (MTT assay)[53]. The MTT reagent was dissolved at 0.5 mg ml^−1 in medium without phenol red and was used to replace cell culture supernatants containing the peptides (100 μl per well), and the samples were incubated for 4 h at 37 °C in a humidified atmosphere containing 5% CO2 yielding the insoluble formazan salt. The resulting salts were then resuspended in hydrochloric acid (0.04 mol l^−1) in anhydrous isopropanol and quantified by spectrophotometric measurements of absorbance at 570 nm. All assays were done as three biological replicates.
# Unless otherwise stated, all assays were performed in three independent biological replicates as indicated in each figure legend and Methods sections. The cytotoxic activities values were estimated using non-linear regression based on the range of concentrations screened and were shown as the values that cause lysis of 50% of the cells in the experiment. Two technical replicates were performed in the cytotoxicity assays within each of the three biological replicates.
# [1] = tested on: 11 clinically relevant bacterial pathogens; type: cell-based; conditions: Supplementary Dataset 2; against the 11 pathogens tested
# Description: as §1, §2
Compound,"Minimal inhibitory concentration, A. baumannii ATCC19606 (A. baumannii ATCC 19606)",CC50 (HEK293T cells; 24 h),Active or Inactive [1],CC50 (HEK293T cells),TI (therapeutic index) (HEK293T cells),TI (therapeutic index) (HEK293T cells; 24 h)
CC[C@H](C)[C@H](NC(=O)[C@H](CC(N)=O)NC(=O)[C@H](CC(C)C)NC(=O)[C@@H](NC(=O)[C@H](Cc1ccccc1)NC(=O)[C@@H]1CCCN1C(=O)[C@@H]1CCCN1C(=O)[C@@H](NC(=O)[C@H](CO)NC(=O)[C@H](CC(C)C)NC(=O)[C@H](CCCCN)NC(=O)[C@H](CCCCN)NC(=O)[C@H](Cc1ccc(O)cc1)NC(=O)[C@@H](NC(=O)[C@@H](N)CCCCN)[C@@H](C)CC)[C@@H](C)O)[C@@H](C)O)C(=O)N[C@@H](CCCNC(=N)N)C(=O)N[C@H](C(=O)N[C@@H](CC(C)C)C(=O)N1CCC[C@H]1C(=O)N[C@@H](CCCCN)C(=O)N[C@H](C(=O)N[C@@H](CCCCN)C(=O)N[C@@H](Cc1ccccc1)C(=O)N1CCC[C@H]1C(=O)N[C@@H](CCCCN)C(=O)O)C(C)C)[C@@H](C)O [Mylodonin-3] (H-KIYKKLSTPPFTLNIRTLPKVKFPK-OH; N-terminus and C-terminus assumed),16 µM,> 128 µM,Active,–,–,–
CC[C@H](C)[C@H](N)C(=O)N[C@@H](Cc1ccccc1)C(=O)N[C@@H](CC(C)C)C(=O)N[C@@H](Cc1c[nH]cn1)C(=O)N[C@@H](CC(C)C)C(=O)N[C@@H](CCCCN)C(=O)N[C@H](C(=O)N[C@@H](CC(C)C)C(=O)N[C@@H](CCCCN)C(=O)N[C@H](C(=O)N[C@H](C(=O)N[C@@H](Cc1c[nH]cn1)C(=O)N[C@@H](CC(C)C)C(=O)N[C@@H](CC(C)C)C(=O)O)[C@@H](C)CC)[C@@H](C)CC)[C@@H](C)O [Mammuthusin-1] (H-IFLHLKTLKIIHLL-OH; N-terminus and C-terminus assumed),8 µM,> 128 µM,Active,–,–,–
CC[C@H](C)[C@H](NC(=O)[C@@H](N)[C@@H](C)O)C(=O)N[C@@H](CCCCN)C(=O)N[C@@H](CC(C)C)C(=O)N[C@@H](Cc1ccccc1)C(=O)N[C@@H](CC(C)C)C(=O)N[C@@H](CO)C(=O)N[C@@H](Cc1ccccc1)C(=O)N[C@@H](CCCCN)C(=O)N[C@@H](CC(C)C)C(=O)O [Xenothrixin-1] (H-TIKLFLSFKL-OH; N-terminus and C-terminus assumed),8 µM,70.77 µM,Active,70.77 µM,8.84,–
CC[C@H](C)[C@H](NC(=O)[C@H](CCCCN)NC(=O)[C@H](CC(N)=O)NC(=O)[C@@H](NC(=O)[C@@H](NC(=O)[C@H](Cc1c[nH]c2ccccc12)NC(=O)[C@H](CC(C)C)NC(=O)[C@H](CCC(N)=O)NC(=O)[C@H](CC(C)C)NC(=O)[C@@H](NC(=O)[C@H](C)NC(=O)[C@H](CC(C)C)NC(=O)[C@@H](N)CCCNC(=N)N)[C@@H](C)O)[C@@H](C)O)[C@@H](C)CC)C(=O)N[C@H](C(=O)N[C@@H](CCCCN)C(=O)N[C@@H](CCC(N)=O)C(=O)N[C@@H](CC(C)C)C(=O)N[C@@H](CCSC)C(=O)N[C@H](C(=O)N1CCC[C@H]1C(=O)N[C@@H](CC(C)C)C(=O)N[C@@H](CC(N)=O)C(=O)N[C@@H](CCCCN)C(=O)N1CCC[C@H]1C(=O)NCC(=O)N[C@@H](Cc1c[nH]cn1)C(=O)N[C@@H](CCCCN)C(=O)O)[C@@H](C)CC)[C@@H](C)O [Ararin-2] (H-RLATLQLWTINKITKQLMIPLNKPGHK-OH; N-terminus and C-terminus assumed),16 µM,> 128 µM,Active,–,–,–
CC[C@H](C)[C@H](NC(=O)[C@@H]1CCCN1C(=O)[C@H](CC(N)=O)NC(=O)[C@@H]1CCCN1C(=O)[C@@H]1CCCN1C(=O)[C@H](CCCCN)NC(=O)[C@@H](N)CCCCN)C(=O)N[C@@H](CCCCN)C(=O)N1CCC[C@H]1C(=O)N[C@@H](CCCCN)C(=O)N[C@H](C(=O)N1CCC[C@H]1C(=O)N[C@@H](CC(C)C)C(=O)N[C@@H](CO)C(=O)N[C@@H](C)C(=O)N1CCC[C@H]1C(=O)N[C@@H](CCCNC(=N)N)C(=O)N[C@@H](CCCCN)C(=O)N[C@@H](CO)C(=O)N1CCC[C@H]1C(=O)N[C@@H](CC(N)=O)C(=O)N[C@H](C(=O)N[C@H](C(=O)N[C@@H](CCCCN)C(=O)N[C@@H](Cc1ccc(O)cc1)C(=O)N[C@@H](CCCNC(=N)N)C(=O)N[C@@H](CC(C)C)C(=O)N[C@@H](CCCCN)C(=O)N[C@@H](Cc1ccccc1)C(=O)N[C@@H](CCCNC(=N)N)C(=O)O)C(C)C)[C@@H](C)O)C(C)C [Mammuthusin-5] (H-KKPPNPIKPKVPLSAPRKSPNTVKYRLKFR-OH; N-terminus and C-terminus assumed),32 µM,> 128 µM,Active,–,–,> 4
CC[C@H](C)[C@H](NC(=O)[C@H](CCCNC(=N)N)NC(=O)[C@H](Cc1c[nH]cn1)NC(=O)[C@H](CCCCN)NC(=O)[C@@H](NC(=O)CNC(=O)[C@H](CCCNC(=N)N)NC(=O)[C@H](C)NC(=O)[C@H](CCCCN)NC(=O)[C@@H](NC(=O)[C@H](C)NC(=O)[C@@H]1CCCN1C(=O)[C@H](CC(C)C)NC(=O)[C@H](CCC(N)=O)NC(=O)[C@H](CO)NC(=O)[C@H](Cc1ccccc1)NC(=O)[C@H](CC(C)C)NC(=O)[C@H](CC(C)C)NC(=O)[C@@H](NC(=O)[C@@H](N)CS)C(C)C)C(C)C)[C@@H](C)O)C(=O)N[C@@H](CCCCN)C(=O)N[C@@H](Cc1c[nH]c2ccccc12)C(=O)N[C@@H](CC(N)=O)C(=O)N[C@@H](CCCNC(=N)N)C(=O)N[C@@H](CCCCN)C(=O)O [Equusin-4] (H-CVLLFSQLPAVKARGTKHRIKWNRK-OH; N-terminus and C-terminus assumed),16 µM,> 128 µM,Active,–,–,> 8
CC[C@H](C)[C@H](N)C(=O)N[C@@H](CC(C)C)C(=O)N[C@@H](CC(C)C)C(=O)N[C@H](C(=O)N[C@H](C(=O)N[C@@H](C)C(=O)N[C@H](C(=O)N[C@@H](C)C(=O)N[C@H](C(=O)N[C@@H](CCCCN)C(=O)N[C@@H](CC(C)C)C(=O)NCC(=O)N[C@@H](CC(C)C)C(=O)O)[C@@H](C)CC)[C@@H](C)CC)[C@@H](C)O)[C@@H](C)O [Ararin-1] (H-ILLTTAIAIKLGL-OH; N-terminus and C-terminus assumed),–,> 128 µM,Active,–,–,> 4
CC[C@H](C)[C@H](N)C(=O)N[C@@H](CC(C)C)C(=O)N[C@H](C(=O)N[C@@H](CC(C)C)C(=O)N[C@@H](Cc1ccccc1)C(=O)N[C@H](C(=O)N[C@H](C(=O)N[C@@H](Cc1ccccc1)C(=O)N[C@@H](CCC(N)=O)C(=O)N[C@@H](CC(C)C)C(=O)N[C@@H](CCCCN)C(=O)N[C@H](C(=O)N[C@@H](CO)C(=O)N[C@@H](CCCCN)C(=O)N[C@@H](CC(C)C)C(=O)O)[C@@H](C)CC)[C@@H](C)CC)[C@@H](C)CC)[C@@H](C)O [Paleopropin-2] (H-ILTLFIIFQLKISKL-OH; N-terminus and C-terminus assumed),–,> 128 µM,Active,–,–,> 8
CC[C@H](C)[C@H](NC(=O)[C@H](CC(C)C)NC(=O)[C@H](Cc1c[nH]cn1)NC(=O)[C@@H](NC(=O)[C@H](CC(C)C)NC(=O)[C@H](CC(C)C)NC(=O)[C@H](Cc1c[nH]cn1)NC(=O)CN)[C@@H](C)CC)C(=O)NCC(=O)N[C@@H](CCCCN)C(=O)N[C@@H](C)C(=O)N[C@H](C(=O)N[C@@H](CC(C)C)C(=O)N[C@@H](C)C(=O)N[C@@H](CC(C)C)C(=O)O)[C@@H](C)O [Arctoterin-1] (H-GHLLIHLIGKATLAL-OH; N-terminus and C-terminus assumed),64 µM,> 128 µM,Active,–,–,–
